Source: patent US11884667B1, “Substituted pyrrolo[2,3-c][2,7]naphthyridines as CK2 inhibitors” (KING FAISAL UNIVERSITY, priority 2023, dated 2024)

Key:
[1] = system: PC3 (prostate); experiment: In vitro cytotoxic activity (MTT) assay, PC3; assay type: cell-based; settings: Homo sapiens, 96 hours exposure, read-out: IC50, 50% inhibition of cell proliferation
Experimental: (§1) Compounds 1-15 were screened for their in vitro cytotoxic activity utilizing a 3-(4,5-dimethyl-thiazol-2-yl)-2,5-diphenyltetrazolium bromide (MTT) assay against selected cancer human cell lines consisting of PC3 (prostate), HCT116 (colon), A375 (melanoma), H1299 (lung), MIAPaCa-2 (pancreas), HL60 (leukemia), MCF7 (breast), MDA-MB-231 (breast) (T. Mosmann, J. Immunol. Meth., 1983, 65, 55-63). The cells were cultured at 37° C. in RMPI1640 medium supplemented with 10% fetal bovine serum, 50 IU/mL penicillin, and 50 μg/mL streptomycin in a 5% CO2 incubator. All cells were sub-cultured 3 times/week by trypsinization. Viable cells were seeded and allowed to adhere for 12 h before a test drug was added in 96-well plates at an initial density of 1.0×10^5 cells/mL. Tumour cell lines were separately exposed to various concentrations of the tested compounds followed by incubation at a temperature of 37° C. during 96 h inside a medium of fresh RMPI 1640. Cells were subsequently incubated at 37° C. using MTT at 0.5 mg/mL during 4 h. After removal of supernatant, formazan crystals were dissolved in isopropanol and the optical density was measured at 570 nm. CX-4945 was used as a positive control.

[2] = system: HCT116 (colon); experiment: In vitro cytotoxic activity (MTT) assay, HCT116; assay type: cell-based; settings: Homo sapiens, HCT-116, 96 hours exposure, read-out: IC50, 50% inhibition of cell proliferation
Experimental: as §1

[3] = system: A375 (melanoma); experiment: In vitro cytotoxic activity (MTT) assay, A375; assay type: cell-based; settings: Homo sapiens, A-375, 96 hours exposure, read-out: IC50, 50% inhibition of cell proliferation
Experimental: as §1

[4] = system: H1299 (lung); experiment: In vitro cytotoxic activity (MTT) assay, H1299; assay type: cell-based; settings: Homo sapiens, NCI-H1299, 96 hours exposure, read-out: IC50, 50% inhibition of cell proliferation
Experimental: as §1

[5] = system: MIAPaCa-2 (pancreas); experiment: In vitro cytotoxic activity (MTT) assay, MIAPaCa-2; assay type: cell-based; settings: Homo sapiens, MIA PaCa-2, 96 hours exposure, read-out: IC50, 50% inhibition of cell proliferation
Experimental: as §1

[6] = system: HL60 (leukemia); experiment: In vitro cytotoxic activity (MTT) assay, HL60; assay type: cell-based; settings: Homo sapiens, HL-60, 96 hours exposure, read-out: IC50, 50% inhibition of cell proliferation
Experimental: as §1

[7] = system: MCF7 (breast); experiment: In vitro cytotoxic activity (MTT) assay, MCF7; assay type: cell-based; settings: Homo sapiens, 96 hours exposure, read-out: IC50, 50% inhibition of cell proliferation
Experimental: as §1

[8] = system: MDA-MB-231 (breast); experiment: In vitro cytotoxic activity (MTT) assay, MDA-MB-231; assay type: cell-based; settings: Homo sapiens, 96 hours exposure, read-out: IC50, 50% inhibition of cell proliferation
Experimental: as §1

[9] = molecular target: T1, recombinant human CK2 (RRββ-holoenzyme) (Homo sapiens, UniProt P68400); experiment: CK2 kinase assay ([γ-33P]ATP, filter plate); assay type: biochemical; settings: final ATP 15 μM, 10 min at 30° C.; read-out: protein kinase CK2 IC50
T1 construct: purchased Millipore
T1 sequence (P68400 whole entry): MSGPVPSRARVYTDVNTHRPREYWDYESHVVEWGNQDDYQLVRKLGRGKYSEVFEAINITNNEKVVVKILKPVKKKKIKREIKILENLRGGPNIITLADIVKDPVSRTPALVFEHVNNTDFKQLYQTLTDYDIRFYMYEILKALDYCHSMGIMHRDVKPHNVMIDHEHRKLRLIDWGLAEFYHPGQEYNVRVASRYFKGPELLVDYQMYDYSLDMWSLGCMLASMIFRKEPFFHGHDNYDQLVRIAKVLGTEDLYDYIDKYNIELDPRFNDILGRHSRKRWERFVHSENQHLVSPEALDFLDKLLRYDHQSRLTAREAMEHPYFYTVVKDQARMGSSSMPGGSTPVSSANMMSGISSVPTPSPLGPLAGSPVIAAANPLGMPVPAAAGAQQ
T1 sequence (P67870 whole entry partner): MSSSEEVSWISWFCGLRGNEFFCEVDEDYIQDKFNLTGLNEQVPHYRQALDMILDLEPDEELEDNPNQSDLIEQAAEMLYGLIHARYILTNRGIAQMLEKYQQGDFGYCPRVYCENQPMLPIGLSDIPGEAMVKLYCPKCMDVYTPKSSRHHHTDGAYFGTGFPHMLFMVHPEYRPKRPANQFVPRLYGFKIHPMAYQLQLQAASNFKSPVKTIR
Experimental: CK2 Kinase Assay was conducted using the protocol as described in Pierre F. et al; J. Med. Chem. 2011, 54, 635-654. The tested compounds in aqueous solution were added at a volume of 10 μL to a reaction mixture comprising 10 μL of assay dilution buffer (ADB; 20 mM MOPS, pH 7.2, 25 mM β-glycerol phosphate, 5 mM EGTA, 1 mM sodium orthovanadate, and 1 mM dithiothreitol), 10 μL of substrate peptide (RRRDDDSDDD, dissolved in ADB at a concentration of 1 mM), 10 μL of recombinant human CK2 (RRββ-holoenzyme, 25 ng dissolved in ADB; Millipore). Reactions were initiated by the addition of 10 μL of ATP solution (90% 75 mMMgCl2, 75 μM ATP (final ATP concentration:15 μM) dissolved in ADB; 10% [γ-33P] ATP (stock 1mCi/100 μL; 3000 Ci/mmol (Perkin-Elmer) and maintained for 10 min at 30° C. The reactions were quenched with 100 μL of 0.75% phosphoric acid and then transferred to and filtered through a phosphor cellulose filter plate (Millipore). After washing each well five times with 0.75% phosphoric acid, the plate was dried under vacuum for 5 min and, following the addition of 15 μL of scintillation fluid to each well, the residual radioactivity was measured using a Wallac […]. The IC50 values were derived from eight concentrations of test inhibitors.

- IC50 [9]: 16 nM
Compound: O=C(O)c1cc2c(nc(Nc3cccc(Cl)c3)c3cnccc32)[nH]1 [Compound 1, 5-((3-chlorophenyl)amino)-3H-pyrrolo[2,3-c][2,7]naphthyridine-2-carboxylic acid]
- IC50 [1]: 2600 nM
- IC50 [2]: 900 nM
- IC50 [3]: 2700 nM
- IC50 [4]: 1100 nM
- IC50 [5]: 800 nM
- IC50 [6]: 2400 nM
- IC50 [7]: 3300 nM
- IC50 [8]: 4100 nM
